Measurements: patent publication US5710150A, “Benzazepine derivative, pharmaceutical composition thereof, and intermediate thereof” (Yamanouchi Pharmaceutical Co., Ltd., priority 1993, dated 1998)
pKi: −log10 of the molar value. Structures can show the parent of a compound that is named as a salt. Where two headings read alike, the source gives them in different places.

Legend:
[1] = biological target: arginine vasopressin V2 receptor (Oryctolagus cuniculus, UniProt G1TA00); experiment: V2 receptor binding assay ([3H]-Arg-vasopressin, rabbit renal medulla membrane); settings: for antagonism on V2 receptor (in words): compared with OPC-31260 and OPC-21268; for Binding activity on arginine vasopressin V2 receptor (pKi): rabbit renal medulla membrane, [3H]-Arg-vasopressin 2 nM
[2] = biological target: T1, arginine vasopressin V1 receptor (Rattus norvegicus, UniProt P30560); experiment: V1 receptor binding assay ([3H]-Arg-vasopressin, rat liver membrane); settings: for antagonism on V1 receptor (in words): compared with OPC-31260 and OPC-21268; for Ki: rat liver membrane, [3H]-Arg-vasopressin 2 nM, 30° C., 30 minutes, pH 8.0, read-out: Binding activity on arginine vasopressin V1 receptor (pKi) (converted); for V1 selectivity (in words): V1 versus V2 receptor binding; for V1 receptor antagonism compared with OPC-21268 (in words): versus OPC-21268
T1 construct: A rat liver membrane sample was prepared; from tissue; host or cells: rat liver membranes
Procedure: (1) V1 receptor binding assay
A rat liver membrane sample was prepared in accordance with the method of Nakamura et al. (J. Biol. Chem., 258, 9283 (1983)), and [^3 H]-Arg-vasopressin (2 nM, specific activity=75.8 Ci/mmol), 70 μg of the membrane sample and each drug to be tested (10^-8 to 10^-4 M) were incubated at 30° C. for 30 minutes in 250 μl of 100 mM Tris-HCl buffer (pH=8.0) containing 5 mM of magnesium chloride, 1 mM of ethylenediaminetetraacetic acid (EDTA) and 0.1% of bovine serum albumin (BSA). Thereafter, the incubation solution was sucked off using a cell harvester and free ligand and excess buffer were removed by passing the reaction mixture through a glass filter (GF/B), thereby trapping receptor-bound labeled ligand on the glass filter. The glass filter was taken out, thoroughly dried and then mixed with a liquid scintillation cocktail, and the amount of the membrane-bound [^3 H]-vasopressin was measured using a liquid scintillation counter to calculate the inhibition ratio by the following formula. [formula] C1 : amount of [^3 H]-vasopressin bound to the membrane in the coexistence of known amount of each drug to be tested and [^3 H]-vasopressin
C0 : amount of [^3 H]-vasopressin bound to the membrane when the drug to be tested was not added
B1 : amount of [^3 H]-vasopressin bound to the membrane in the presence of excess vasopressin (10^-6 M)
[formula] [L]: concentration of radioactive ligand KD: dissociation constant calculated from Scatchard plot
Negative logarithm of the thus calculated Ki value was used as pKi value.

T1 sequence (P30560 whole entry): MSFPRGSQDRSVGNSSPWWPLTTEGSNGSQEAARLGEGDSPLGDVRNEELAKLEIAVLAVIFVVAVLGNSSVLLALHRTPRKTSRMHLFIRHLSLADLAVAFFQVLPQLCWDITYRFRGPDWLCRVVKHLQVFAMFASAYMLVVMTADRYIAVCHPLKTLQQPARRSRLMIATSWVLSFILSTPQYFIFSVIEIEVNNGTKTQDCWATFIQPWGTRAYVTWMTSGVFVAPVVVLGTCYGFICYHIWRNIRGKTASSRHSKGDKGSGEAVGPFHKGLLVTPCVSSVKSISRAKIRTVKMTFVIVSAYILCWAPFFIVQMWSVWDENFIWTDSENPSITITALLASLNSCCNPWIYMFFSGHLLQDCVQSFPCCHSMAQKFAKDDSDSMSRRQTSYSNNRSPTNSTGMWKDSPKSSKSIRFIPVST
Sequence of arginine vasopressin V2 receptor (G1TA00 78-446): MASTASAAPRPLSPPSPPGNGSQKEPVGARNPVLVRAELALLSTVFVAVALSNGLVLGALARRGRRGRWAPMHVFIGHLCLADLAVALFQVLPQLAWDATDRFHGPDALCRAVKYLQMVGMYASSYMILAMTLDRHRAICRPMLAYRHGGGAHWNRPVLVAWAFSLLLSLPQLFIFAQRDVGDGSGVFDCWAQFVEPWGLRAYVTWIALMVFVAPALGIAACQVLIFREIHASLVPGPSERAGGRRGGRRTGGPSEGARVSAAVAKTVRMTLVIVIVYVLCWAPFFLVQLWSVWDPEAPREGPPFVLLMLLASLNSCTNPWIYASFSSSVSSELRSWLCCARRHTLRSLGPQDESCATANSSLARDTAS

| Structure (SMILES) | antagonism on V2 receptor (in words) [1] | Binding activity on arginine vasopressin V2 receptor (pKi) [1] | antagonism on V1 receptor (in words) [2] | Ki [2] [pM] | pKi [2] | V1 selectivity (in words) [2] | V1 receptor antagonism compared with OPC-21268 (in words) [2] |
| --- | --- | --- | --- | --- | --- | --- | --- |
| Cl.O=C(/C=C1/c2ccccc2N(C(=O)c2ccc(NC(=O)c3ccccc3-c3ccccc3)cc2)CCC1(F)F)NC1CN2CCC1CC2 (racemic) [Example 85, (±)-(Z)-4'-[[4,4-difluoro-5-[[N-(3-quinuclidinyl)carbamoyl]methylene]-2,3,4,5-tetrahydro-1H-1-benzazepin-1-yl]carbonyl]-2-phenylbenzanilide hydrochloride] | excellent antagonisms on both V1 and V2 receptors | 9.97 | excellent antagonisms on both V1 and V2 receptors | 95.5 |  |  |  |
| Cc1ccc(-c2ccccc2C(=O)Nc2ccc(C(=O)N3CCC(F)(F)/C(=C\C#N)c4ccccc43)cc2)cc1 [Compound 22 (a), 4'-[(5-cyanomethylene-4,4-difluoro-2,3,4,5-tetrahydro-1H-1-benzazepin-1-yl)carbonyl]-2-(4methylphenyl)benzanilide] |  | 8.36 |  |  | 8.02 |  |  |
| CN(C)C(=O)/C=C1/c2ccccc2N(C(=O)c2ccc(NC(=O)c3ccccc3-c3ccccc3)cc2)CCC1(F)F [Example 129, (Z)-4'-[[5-(N,N-dimethylcarbamoylmethylene)-4,4-difluoro-2,3,4,5-tetrahydro1H-1-benzazepin-1-yl]carbonyl]-2-phenylbenzanilide] |  | 8.24 |  | 479 |  |  |  |
| CN(C)CC/C=C1\c2ccccc2N(C(=O)c2ccc(NC(=O)c3ccccc3-c3ccccc3)cc2)CCC1(F)F.Cl [Example 82, (E)-4'-[[4,4-difluoro-5-(3-dimethylaminopropylidene)-2,3,4,5-tetrahydro-1H-1-benzazepin-1-yl]carbonyl]-2-phenylbenzanilide hydrochloride] |  | 8.13 |  | 2630 |  |  |  |
| O=C(Nc1ccc(C(=O)N2CCC(F)(F)/C(=C\C(=O)N3CCOCC3)c3ccccc32)cc1)c1ccccc1-c1ccccc1 [Example 133, (Z)-4'-[(4,4-difluoro-5-morpholinocarbonylmethylene-4,4-difluoro-2,3,4,5-tetrahydro-1H-1-benzazepin-1-yl)carbonyl]-2-phenylbenzanilide] |  | 8.28 |  | 363 |  |  |  |
| CNC(=O)/C=C1/c2ccccc2N(C(=O)c2ccc(NC(=O)c3ccccc3-c3ccccc3)cc2)CCC1(F)F [Example 122, (Z)-4'-[[4,4-difluoro-5-(N-methylcarbamoylmethylene)-2,3,4,5-tetrahydro-1H-1-benzazepin-1-yl]carbonyl]-2-phenylbenzanilide] |  | 8.94 |  | 355 |  |  |  |
| O=C(Nc1ccc(C(=O)N2CCC(F)(F)/C(=C\C(=O)N3CCCC3)c3ccccc32)cc1)c1ccccc1-c1ccccc1 [Example 131] |  | 7.99 |  | 708 |  |  |  |
| Cl.O=C(Nc1ccc(C(=O)N2CCC(F)(F)/C(=C\C(=O)N3CCNCC3)c3ccccc32)cc1)c1ccccc1-c1ccccc1 [Example 12, (Z)-4'-[[4,4-difluoro-5-[(1piperazinylcarbonyl)methylene]-2,3,4,5-tetrahydro-1H-1-benzazepin-1-yl]carbonyl]-2-phenylbenzanilide hydrochloride] | excellent antagonisms on both V1 and V2 receptors | 9.71 | excellent antagonisms on both V1 and V2 receptors | 219 |  |  |  |
| CCc1nccn1-c1ccccc1C(=O)Nc1ccc(C(=O)N2CCC(F)(F)/C(=C\C(=O)OC)c3ccccc32)cc1 [Example 42, methyl (Z)-[1-[4-[2-(2-ethyl-1H-imidazol-1yl)benzoyl]amino]benzoyl-4,4-difluoro-2,3,4,5-tetrahydro-1H-1-benzazepin-5-ylidene]acetate] |  | 6.33 |  | 1150 |  | excellent in V1 selectivity | markedly stronger V1 receptor antagonism than that of OPC-21268 |
| COCCNC(=O)/C=C1/c2ccccc2N(C(=O)c2ccc(NC(=O)c3ccccc3-c3ccccc3)cc2)CCC1(F)F [Example 135, (Z)-4'-[[4,4-difluoro-5-[N-(2-methoxyethyl)carbamoylmethylene]-2,3,4,5-tetrahydro-1H-1-benzazepin-1-yl]carbonyl]-2-phenylbenzanilide] |  | 8.11 |  | 195 |  |  |  |
| CCc1nccn1-c1ccccc1C(=O)Nc1ccc(C(=O)N2CCC(F)(F)/C(=C\C(=O)NC3CC3)c3ccccc32)cc1 [Example 105, (Z)-4'-[[5-[(N-cyclopropylcarbamoyl)methylene]-4,4-difluoro-2,3,4,5-tetrahydro-1H-1-benzazepin-1-yl]carbonyl]-2-(2-ethyl-1H-imidazol-1-yl) benzanilide] |  | 6.81 |  | 339 |  | excellent in V1 selectivity | markedly stronger V1 receptor antagonism than that of OPC-21268 |
| NC(=O)/C=C1/c2ccccc2N(C(=O)c2ccc(NC(=O)c3ccccc3-c3ccccc3)cc2)CCC1(F)F [Example 121, (Z)-4'-[(5-carbamoylmethylene-4,4-difluoro-2,3,4,5-tetrahydro-1H-1-benzazepin-1-yl]carbonyl]-2-phenylbenzanilide] |  | 8.59 |  | 295 |  |  |  |
| CN(C)CCN(C)C(=O)/C=C1/c2ccccc2N(C(=O)c2ccc(NC(=O)c3ccccc3-c3ccccc3)cc2)CCC1(F)F [Example 15, (Z)-4'-[4,4-difluoro-5-[[N-(2-dimethylaminoethyl)-N-methylcarbonylmethylene]-2,3,4,5-tetrahydro-1H-1-benzazepin-1-yl]carbonyl]-2-phenylbenzanilide hydrochloride] | excellent antagonisms on both V1 and V2 receptors | 9.13 | excellent antagonisms on both V1 and V2 receptors | 162 |  |  |  |
| Cc1ccsc1C(=O)Nc1ccc(C(=O)N2CCC(F)(F)/C(=C\C(=O)N3CCC(N(C)C)CC3)c3ccccc32)cc1 [Example 111, (Z)-N-[4-[[4,4-difluoro-5-[[(4-dimethylaminopiperidino)carbonyl]methylene]-2,3,4,5-tetrahydro-1H-1-benzazepin-1-yl]carbonyl]phenyl]-3-methylthiophene-2-carboxyamide hydrochloride] |  | 7.79 |  |  | 9.25 |  |  |
| CN(C)C1CCN(C(=O)/C=C2/c3ccccc3N(C(=O)c3ccc(NC(=O)c4cccn4C)cc3)CCC2(F)F)CC1 [Example 110, (Z)-N-[4-[[4,4-difluoro-5-[[(4-dimethylaminopiperidino)carbonyl]methylene]-2,3,4,5-tetrahydro-1H-1-benzazepin-1-yl]carbonyl]phenyl]-1-methylpyrrole-2-carboxyamide hydrochloride] |  | 7.75 |  |  | 9.40 |  |  |
| CN1CCC(N(C)C(=O)/C=C2/c3ccccc3N(C(=O)c3ccc(NC(=O)c4ccccc4-c4ccccc4)cc3)CCC2(F)F)CC1 [Example 84, (Z)-4'-[[4,4-difluoro-5-[[N-methyl-N-(1-methyl-4-piperidyl)carbamoyl]methylene]-2,3,4,5-tetrahydro-1H-1-benzazepin-1-yl]carbonyl]-2-phenylbenzanilidehydrochloride] |  |  |  | 102 |  |  |  |
